Test results from ChEMBL document CHEMBL1153472 (Bioorg Med Chem Lett, 2009).

What was measured:
[1] = biological target: Beta-1 adrenergic receptor (Homo sapiens, UniProt P08588); assay: Agonist activity at human recombinant adrenergic beta-1 receptor expressed in CHO cells assessed as stimulation of cAMP level after 1 hr by enzyme immunoassay; type: functional, cell-based
[2] = Cmax in po dosed dog; type: ADME, organism-based, Canis lupus familiaris; set-up: route oral; details: in vivo
[3] = biological target: Beta-3 adrenergic receptor (Homo sapiens, UniProt P13945); assay: Agonist activity at human recombinant adrenergic beta3 receptor expressed in CHO cells assessed as stimulation of cAMP level after 1 hr by enzyme immunoassay; type: functional, cell-based
[4] = AUC (0 to 24 hrs) in po dosed dog; type: ADME, organism-based, Canis lupus familiaris; set-up: time < 24 hr, route oral; details: plasma
[5] = biological target: Beta-2 adrenergic receptor (Homo sapiens, UniProt P07550); assay: Agonist activity at human recombinant adrenergic beta2 receptor expressed in CHO cells assessed as stimulation of cAMP level after 1 hr by enzyme immunoassay; type: functional, cell-based
[6] = Half life in iv dosed dog; type: ADME, organism-based, Canis lupus familiaris; details: in vivo
[7] = Total clearance in iv dosed dog; type: ADME, organism-based, Canis lupus familiaris; details: in vivo
[8] = Oral bioavailability in dog; type: ADME, organism-based, Canis lupus familiaris; details: in vivo
[9] = tested on: Canis familiaris; assay: Inhibition of carbachol-induced increase in intravesical pressure in intraduodenally dosed Beagle dog overactive bladder model administered after carbachol challenge followed by reinjection of carbachol 30 mins post drug dose measured for 180 mins; type: functional; details: Canis lupus familiaris, intraduodenal
[10] = biological target: Beta-3 adrenergic receptor (Canis lupus familiaris, UniProt O02662); assay: Agonist activity at dog recombinant adrenergic beta3 receptor expressed in CHO cells assessed as stimulation of cAMP level after 1 hr by enzyme immunoassay; type: functional, cell-based
[11] = Protein binding in dog; type: ADME, organism-based, Canis lupus familiaris; details: in vivo, read-out: PB (converted)

Sequence of Beta-3 adrenergic receptor (Homo sapiens, UniProt P13945) (P13945 whole entry): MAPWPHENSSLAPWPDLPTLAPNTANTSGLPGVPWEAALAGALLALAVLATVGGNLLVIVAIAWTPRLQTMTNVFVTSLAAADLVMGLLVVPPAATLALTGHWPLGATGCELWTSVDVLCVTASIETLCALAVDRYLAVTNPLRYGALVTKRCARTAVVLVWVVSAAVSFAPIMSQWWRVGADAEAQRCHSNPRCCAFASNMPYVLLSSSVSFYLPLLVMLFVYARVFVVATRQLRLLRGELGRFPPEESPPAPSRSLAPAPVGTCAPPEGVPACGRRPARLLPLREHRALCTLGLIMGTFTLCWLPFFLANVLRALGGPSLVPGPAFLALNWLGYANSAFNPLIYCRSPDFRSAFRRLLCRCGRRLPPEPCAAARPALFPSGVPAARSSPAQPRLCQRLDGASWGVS
Sequence of Beta-1 adrenergic receptor (P08588 whole entry): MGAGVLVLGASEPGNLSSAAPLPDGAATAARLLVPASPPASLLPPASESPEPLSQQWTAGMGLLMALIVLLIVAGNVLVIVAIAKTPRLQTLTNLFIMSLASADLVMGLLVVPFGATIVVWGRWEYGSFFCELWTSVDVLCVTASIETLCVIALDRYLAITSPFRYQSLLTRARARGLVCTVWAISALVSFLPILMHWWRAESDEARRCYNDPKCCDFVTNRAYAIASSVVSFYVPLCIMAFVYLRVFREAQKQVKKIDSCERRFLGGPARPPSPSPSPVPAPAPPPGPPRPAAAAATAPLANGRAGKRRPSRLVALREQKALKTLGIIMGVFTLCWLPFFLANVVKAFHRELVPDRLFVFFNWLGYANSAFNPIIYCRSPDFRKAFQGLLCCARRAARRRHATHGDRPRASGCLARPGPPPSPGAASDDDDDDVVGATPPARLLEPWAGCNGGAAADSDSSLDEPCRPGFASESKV
Sequence of Beta-2 adrenergic receptor (P07550 whole entry): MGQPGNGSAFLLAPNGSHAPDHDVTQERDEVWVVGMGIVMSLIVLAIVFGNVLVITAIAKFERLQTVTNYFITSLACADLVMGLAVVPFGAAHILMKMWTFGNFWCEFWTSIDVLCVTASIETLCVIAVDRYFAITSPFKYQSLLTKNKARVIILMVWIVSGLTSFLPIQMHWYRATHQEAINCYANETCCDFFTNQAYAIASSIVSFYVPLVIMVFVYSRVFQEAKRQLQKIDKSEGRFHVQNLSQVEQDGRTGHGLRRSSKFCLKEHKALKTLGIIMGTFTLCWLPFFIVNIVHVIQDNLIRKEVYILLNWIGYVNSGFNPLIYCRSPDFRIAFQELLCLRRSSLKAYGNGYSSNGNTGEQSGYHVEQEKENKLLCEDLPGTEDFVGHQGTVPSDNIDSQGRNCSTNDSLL
Sequence of Beta-3 adrenergic receptor (Canis lupus familiaris, UniProt O02662) (O02662 whole entry): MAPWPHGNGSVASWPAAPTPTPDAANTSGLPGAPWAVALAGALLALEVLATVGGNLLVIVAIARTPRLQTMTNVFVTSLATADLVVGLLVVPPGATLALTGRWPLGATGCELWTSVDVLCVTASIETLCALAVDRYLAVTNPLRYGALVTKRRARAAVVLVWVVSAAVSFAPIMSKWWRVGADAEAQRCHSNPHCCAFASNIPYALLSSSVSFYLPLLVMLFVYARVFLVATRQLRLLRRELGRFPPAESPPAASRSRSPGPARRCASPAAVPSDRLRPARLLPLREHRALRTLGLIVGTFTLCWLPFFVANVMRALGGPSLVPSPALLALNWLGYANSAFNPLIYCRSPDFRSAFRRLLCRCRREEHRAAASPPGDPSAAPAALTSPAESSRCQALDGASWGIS

Q: Which results are given for CC(C)Oc1cc(-c2ccc(CCN[C@@H](C)[C@H](O)c3cccc(O)c3)cc2)ccc1C(=O)NS(C)(=O)=O?
A: EC50 [1]: 130 nM; Cmax [2]: 2.9 ng/mL; EC50 [3]: 0.044 nM; AUC(0-t) at 24 h [4]: 7.3 ng·h/mL

Q: Which results are given for COc1ccc([C@@H](O)[C@H](C)NCCc2ccc(-c3ccc(C(=O)NS(C)(=O)=O)c(OC4CCCCC4)c3)cc2)cc1?
A: EC50 [1]: > 1000 nM; EC50 [3]: 28 nM

Q: Which results are given for CS(=O)(=O)NC(=O)c1ccc(-c2ccc(CCNC[C@H](O)c3cccc(N)c3)cc2)cc1OC1CCCCC1?
A: EC50 [1]: > 1000 nM; Cmax [2]: 6.1 ng/mL; EC50 [3]: 1.2 nM; AUC(0-t) at 24 h [4]: 79.3 ng·h/mL

Q: Which EC50 [1] does the source give for CC(C)Oc1cc(-c2ccc(CCNC[C@H](O)c3ccc(O)c(NS(C)(=O)=O)c3)cc2)ccc1C(=O)NS(C)(=O)=O here?
A: Its EC50 is 150 nM.

Q: What about the Cmax [2] of the same molecule?
A: The Cmax was 1.1 ng/mL.

Q: And the EC50 [3]?
A: The EC50 was 0.26 nM.

Q: What about the AUC(0-t) at 24 h [4] of the same molecule?
A: Its AUC(0-t) at 24 h is 4.4 ng·h/mL.

Q: With CS(=O)(=O)NC(=O)c1ccc(-c2ccc(CCNC[C@H](O)c3ccc(N)cc3)cc2)cc1OC1CCCCC1 as the molecule, how does the EC50 [1] read?
A: Its EC50 is over 1000 nM.

Q: What does the source list for C[C@H](NCCc1ccc(-c2ccc(C(=O)NS(C)(=O)=O)c(OC3CCCCC3)c2)cc1)[C@H](O)c1ccc(O)cc1?
A: EC50 [1]: 110 nM; EC50 [5]: > 10000 nM; half-life [6]: 3.5 h; Cmax [2]: 5.3 ng/mL; clearance [7]: 11 mL/min/kg; bioavailability [8]: 25%; EC50 [3]: 0.35 nM; AUC(0-t) at 24 h [4]: 39.7 ng·h/mL

Q: For CS(=O)(=O)NC(=O)c1ccc(-c2ccc(C[C@@H](CO)NC[C@H](O)c3ccccc3)cc2)cc1OC1CCCCC1, which EC50 [1] is on record?
A: Its EC50 is over 1000 nM.

Q: What about the half-life [6] of the same molecule?
A: The half-life was 5 h.

Q: And the Cmax [2]?
A: Its Cmax is 59.1 ng/mL.

Q: And the clearance [7]?
A: Its clearance is 2.4 mL/min/kg.

Q: And the bioavailability [8]?
A: The bioavailability was 95%.

Q: What about the EC50 [3] of the same molecule?
A: The EC50 was 0.82 nM.

Q: And the AUC(0-t) at 24 h [4]?
A: The AUC(0-t) at 24 h was 654 ng·h/mL.

Q: Which EC50 [1] does the source give for CC(C)Oc1cc(-c2ccc(CCNC[C@H](O)c3cccc(N)c3)cc2)ccc1C(=O)NS(C)(=O)=O here?
A: Its EC50 is over 1000 nM.

Q: What about the half-life [6] of the same molecule?
A: The half-life was 4.9 h.

Q: And the Cmax [2]?
A: The Cmax was 17.2 ng/mL.

Q: What about the clearance [7] of the same molecule?
A: Its clearance is 5.1 mL/min/kg.

Q: And the bioavailability [8]?
A: Its bioavailability is 46%.

Q: And the EC50 [3]?
A: The EC50 was 6 nM.

Q: And the AUC(0-t) at 24 h [4]?
A: Its AUC(0-t) at 24 h is 143 ng·h/mL.

Q: Which results are given for CC(C)Oc1cc(-c2ccc(CCN[C@@H](C)[C@H](O)c3ccc(O)cc3)cc2)ccc1C(=O)NS(C)(=O)=O?
A: EC50 [1]: 290 nM; EC50 [5]: > 10000 nM; ED50 [9]: 5.9 mg/kg; half-life [6]: 6.7 h; Cmax [2]: 23.2 ng/mL; clearance [7]: 7.9 mL/min/kg; EC50 [10]: 1 nM; bioavailability [8]: 56%; fraction unbound [11]: 0.1; EC50 [3]: 0.16 nM; AUC(0-t) at 24 h [4]: 117 ng·h/mL

Q: For CC(=O)Nc1ccc([C@@H](O)CNCCc2ccc(-c3ccc(C(=O)NS(C)(=O)=O)c(OC4CCCCC4)c3)cc2)cn1, which EC50 [1] is on record?
A: The EC50 was over 1000 nM.

Q: What about the half-life [6] of the same molecule?
A: The half-life was 1.8 h.

Q: What about the Cmax [2] of the same molecule?
A: Its Cmax is 16.2 ng/mL.

Q: And the clearance [7]?
A: Its clearance is 8.9 mL/min/kg.

Q: And the bioavailability [8]?
A: The bioavailability was 43%.

Q: What about the EC50 [3] of the same molecule?
A: The EC50 was 0.23 nM.

Q: And the AUC(0-t) at 24 h [4]?
A: Its AUC(0-t) at 24 h is 86.5 ng·h/mL.

Q: With CC(C)Cc1cc(-c2ccc(C[C@@H](C)NC[C@H](O)c3ccccc3)cc2)ccc1C(=O)NS(C)(=O)=O as the molecule, how does the EC50 [1] read?
A: The EC50 was 73 nM.

Q: And the EC50 [3]?
A: Its EC50 is 0.1 nM.

Q: For CC(C)Oc1cc(-c2ccc(CCNC[C@H](O)c3ccc(N)cc3)cc2)ccc1C(=O)NS(C)(=O)=O, which EC50 [1] is on record?
A: Its EC50 is over 1000 nM.
